This note sets out measurements from ChEMBL document CHEMBL1909511, “Inhalation by design: novel tertiary amine muscarinic M₃ receptor antagonists with slow off-rate binding kinetics for inhaled once-daily treatment of chronic obstructive pulmonary disease” (J Med Chem, 2011).

pKi: −log10 of the molar value.

Series [1] in a line: Half life in iv dosed rat. The class given is ADME, organism-based. The settings on record: in vivo.
Another series relates to Cavia porcellus. The experiment in a line: Bronchodilator activity in Dunkin-Hartley guinea pig assessed as inhibition of […] lung resistance after cumulative intratracheal administration in micelle solution at hourly intervals challenged each time 1 hr later with methacholine. The class given is functional, organism-based.
Series [2] relates to MDR1. The series is described as follows: Apparent permeability across basal to apical side in dog MDCK expressing MDR1. The class given is ADME, cell-based, Canis lupus familiaris.
Series [3] in a line: Volume of distribution at steady state in iv dosed rat. The class given is ADME, organism-based. The settings on record: in vivo, read-out: Vdss.
The subject of series [4] is MDR1. The series is described as follows: Apparent permeability across apical to basal side in dog MDCK expressing MDR1. The class given is ADME, cell-based, Canis lupus familiaris.
The target in series [5] is T1, Muscarinic acetylcholine receptor M3 (Homo sapiens, UniProt P20309). The settings on record: CHO.
Target sequence in this assay (P20309 whole entry, looked up): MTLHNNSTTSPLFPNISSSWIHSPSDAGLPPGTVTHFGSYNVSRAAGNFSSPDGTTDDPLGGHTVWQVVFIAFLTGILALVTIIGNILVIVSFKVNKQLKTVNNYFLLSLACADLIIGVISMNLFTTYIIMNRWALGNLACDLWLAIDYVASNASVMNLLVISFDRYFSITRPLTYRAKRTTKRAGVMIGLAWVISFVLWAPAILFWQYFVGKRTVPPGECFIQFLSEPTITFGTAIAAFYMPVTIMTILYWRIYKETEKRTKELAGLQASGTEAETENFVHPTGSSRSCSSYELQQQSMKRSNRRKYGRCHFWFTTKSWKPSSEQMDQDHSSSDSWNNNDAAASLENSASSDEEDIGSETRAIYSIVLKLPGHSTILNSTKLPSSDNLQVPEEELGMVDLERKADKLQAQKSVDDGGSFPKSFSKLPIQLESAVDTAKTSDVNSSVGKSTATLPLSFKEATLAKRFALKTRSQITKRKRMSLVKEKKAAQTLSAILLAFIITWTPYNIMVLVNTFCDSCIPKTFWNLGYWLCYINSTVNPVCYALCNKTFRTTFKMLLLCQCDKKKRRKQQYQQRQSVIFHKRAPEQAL
Series [6] addresses T2, Muscarinic acetylcholine receptor M5 (Homo sapiens) (UniProt P08912).
T2 sequence (whole entry): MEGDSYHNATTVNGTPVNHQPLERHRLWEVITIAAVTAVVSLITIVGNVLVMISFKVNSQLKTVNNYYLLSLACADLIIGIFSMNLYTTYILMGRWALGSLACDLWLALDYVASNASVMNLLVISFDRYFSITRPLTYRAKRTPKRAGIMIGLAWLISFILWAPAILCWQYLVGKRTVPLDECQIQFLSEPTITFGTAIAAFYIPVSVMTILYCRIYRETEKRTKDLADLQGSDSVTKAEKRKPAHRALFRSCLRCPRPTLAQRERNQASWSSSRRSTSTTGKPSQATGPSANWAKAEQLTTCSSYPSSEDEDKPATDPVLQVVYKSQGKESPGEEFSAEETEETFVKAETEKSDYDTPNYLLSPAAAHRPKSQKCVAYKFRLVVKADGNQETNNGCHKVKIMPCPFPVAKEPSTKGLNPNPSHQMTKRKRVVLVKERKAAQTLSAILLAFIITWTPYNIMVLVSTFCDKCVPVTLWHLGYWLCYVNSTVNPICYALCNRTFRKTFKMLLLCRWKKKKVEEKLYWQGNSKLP
The experiment in a line: Displacement of [3H]-NMS from human recombinant M5 receptor expressed in CHO cells assessed as dissociation half life at 100 fold human M5 receptor binding Ki concentration after 24 hrs by dilution-offset filter binding assay. Type of series: cell-based.

For series [7], the system named is Canis familiaris. The experiment in a line: Toxicity in methacholine challenged Beagle dog assessed effect on heart rate at 10 ug intratracheally administered as single dose in micelle solution. Type of series: organism-based, Canis lupus familiaris. The conditions noted are these: in vivo, inhaled_or_intranasal.
For series [8], the system named is Canis familiaris. The experiment in a line: Bronchodilator activity in methacholine challenged Beagle dog assessed as intrinsic duration of action at 3 ug intratracheally administered as single dose in micelle solution. The class given is functional, Canis lupus familiaris.
Series [9] in a line: Total clearance in iv dosed rat. The class given is ADME, organism-based. The conditions noted are these: in vivo.
For series [10], the target named is T3, Muscarinic acetylcholine receptor M2 (Homo sapiens, UniProt P08172).
T3 sequence (P08172 whole entry): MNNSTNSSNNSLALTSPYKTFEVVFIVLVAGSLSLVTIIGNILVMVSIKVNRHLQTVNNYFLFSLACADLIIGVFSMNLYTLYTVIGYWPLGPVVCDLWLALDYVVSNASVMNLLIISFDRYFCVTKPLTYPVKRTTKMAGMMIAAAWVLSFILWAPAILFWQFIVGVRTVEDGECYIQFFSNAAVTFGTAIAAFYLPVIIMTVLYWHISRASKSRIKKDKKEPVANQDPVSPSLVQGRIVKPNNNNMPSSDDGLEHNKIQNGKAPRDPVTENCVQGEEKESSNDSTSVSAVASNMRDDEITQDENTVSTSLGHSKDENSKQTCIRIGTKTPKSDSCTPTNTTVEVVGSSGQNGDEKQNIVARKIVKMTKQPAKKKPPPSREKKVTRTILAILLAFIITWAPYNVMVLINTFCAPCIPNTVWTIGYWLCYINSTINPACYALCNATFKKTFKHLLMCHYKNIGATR
The experiment in a line: Displacement of [3H]-NMS from human recombinant M2 receptor expressed in CHO cells after 24 hrs by filter binding assay. Type of series: cell-based. In general terms: Displacement assays read how much labelled ligand stays bound in the presence of the test substance.

Series [11] deals with T1, Muscarinic acetylcholine receptor M3. The experiment in a line: Displacement of [3H]-NMS from human recombinant M3 receptor expressed in CHO cells after 24 hrs by filter binding assay. The class given is cell-based.
Target sequence in this assay (P20309 whole entry): as the sequence (P20309 whole entry, looked up) above
Series [12] has the same target.
Target sequence in this assay (P20309 whole entry, looked up): as the sequence (P20309 whole entry, looked up) above
Description: Displacement of radioligand from M3 receptor assessed as dissociation half life
The subject of the next series is Oryctolagus cuniculus. The experiment in a line: Toxicity in rabbit lung cough model assessed as induction of cough production at 2000 ug administered intratracheally. The class given is organism-based. The conditions noted are these: in vivo, inhaled_or_intranasal.
In the next series the test system is Rattus norvegicus. The series is described as follows: Unbound clearance in iv dosed rat. Type of series: ADME, organism-based. The conditions noted are these: in vivo.
The nature of series [13]: Plasma protein binding in iv dosed rat. The class given is ADME, organism-based. The conditions noted are these: read-out: PPB (converted).
For series [14], the target named is T4, Muscarinic acetylcholine receptor M2 (Homo sapiens) (UniProt P08172).
T4 sequence (whole entry): T3 sequence (P08172 whole entry)
The experiment in a line: Displacement of [3H]-NMS from human recombinant M2 receptor expressed in CHO cells assessed as dissociation half life at 100 fold human M2 receptor binding Ki concentration after 24 hrs by dilution-offset filter binding assay. The class given is cell-based.

Consider `CC(C)(CCC(C(N)=O)(c1ccccc1)c1ccccc1)N1CC(Oc2cccc(O)c2)C1` [PF-03635659], for which, in [1], the half-life (usually the time in which the quantity being followed falls by half) was 0.9 h. The ED50 with Cavia porcellus was 3 µg. Besides, the Papp B→A – broadly, the apparent permeability from the basolateral to the apical side of a cell layer – in the series with MDR1 [2] is 64 ×10⁻⁶ cm/s. Besides, the Vd in series [3] is 8.4 L/kg. Besides, the Papp A→B – broadly, how fast a substance crosses the layer from the apical side – with MDR1 [4] amounted to 7 ×10⁻⁶ cm/s. The T1/2 in [5] is more than 24 h; in series [6], more than 16.7 h; in series [12], 83.3 h; in series [14] it was 4.38 h. Also, the Activity entry is “Non-toxic” with Canis familiaris [7] and “Toxic” with Oryctolagus cuniculus. The Time in the series on Canis familiaris [8] is more than 24 h. In addition, in [9], the clearance (commonly the volume of plasma or blood freed of the substance per unit of time) was found to be 134 mL/min/kg. Further, the negative-log Ki (pKi) (as a rule, the Ki on a negative log10 scale, so that one unit is a factor of ten) in series [10] is 9.86; in [11], 9.89. Moreover, the CL free with Rattus norvegicus was 2065 mL/min/kg. Also, in [13], the fraction unbound was 0.065.
